This series is described as follows: physchem. Conditions: for solubility: water. The procedure: The lipophilic matrix may consist of a single substance, e.g. a lipid, or of a mixture of substances, e.g. a mixture of lipids. In the case of mixtures, the DAB 10 water-solubility properties, the partition coefficients and the HLB values specified below are calculated from the arithmetic mean of the corresponding values of the substances and from their amounts in parts by weight. The substances used here must not be toxic.
The water-solubility of the active substance and the substance or substances forming the lipophilic matrix can be defined as described in DAD 10 German Pharmacopeia 10th ed. with 3rd suppl. 1994, published by Deutscher Apothekerverlag [=German Pharmacologic Publishing House], Stuttgart and by Govi Verlag, Frankfurt am Main, 2nd suppl. 1993, see Section IV “Allgemeine Vorschriften” [=General Methods] on pages 5 and 6, entitled “Löslichkeit und Lösungsmittell” [=Solubility and Solvents]; see also Ph. Eur. 4.07, 2004). The solubility is given here by the number of parts by volume of a solvent needed to dissolve 1 part by weight of the substance, such as a drug. “Low solubility” applies to substances that need 30-100 parts by volume of solvent to dissolve 1 part by weight of the substance or drug in question, while the terms “very low solubility”, “sparingly soluble” and “difficultly soluble” apply to substances that need 100-1000 parts by volume of a solvent to dissolve 1 part by weight of the substance or drug in question.

Data on two compounds can be found in patent US8273375B2, “Multiparticle pharmaceutical dosage form for a low-soluble active substances and method for producing said pharmaceutical dosage form” (Evonik Roehm GmbH, priority 2004, dated 2012).

As a reminder, the solubility is how much of the substance goes into solution per volume. Low readings indicate little dissolved substance, high ones much dissolved substance.

In brackets after ≈: the same amount, converted by molar mass.

Turning to `CN(CCOc1ccc(CC2SC(=O)NC2=O)cc1)c1ccccn1` (stereo not shown) [Rosiglitazone], the “Water solubility according to DAB 10: parts of water needed to dissolve 1 part of the active substance” value is listed as “at least 1000 parts of water” and the solubility is 1000 µg/mL (≈ 2800 µM).
Regarding `NC(=O)N1c2ccccc2CC(=O)c2ccccc21` [Oxcarbazepine], the “Water solubility according to DAB 10: parts of water needed to dissolve 1 part of the active substance” value is given as “at least 10,000 parts of water” and the solubility worked out at 100 µg/mL (≈ 396 µM).
